Test results: patent US6949682B2, “Cinnamaldehyde derivatives inhibiting growth of tumor cell and regulating cell cycle, preparations and pharmaceutical compositions thereof” (Korea Research Institute of Bioscience and Biotechnology, priority 2003, dated 2005)

Assays:
SW620 colon cancer cell [1] = assay: Growth inhibition of SW620 colon cancer cell (GI50); type: cell-based, human; details: concentration at which growth of SW620 colon cancer cell was inhibited to the 50%
Experimental: (§1) Colon cancer cell of human SW620(ATCC) or HCT116 (ATCC) was transferred to T25 flask(culture 7.5 ml) by RPMI1640 (Gibco/BR) medium or DMEM medium (Gibco/BR) containing 10% FBS (fetal bovine serum), respectively. Thereafter the cell was incubated for 12 hours at 37° C. in incubator. After the cell was incubated for 12 hours, 7.5 μl of DMSO was added to a culture used as control group, for the final concentration to be 0.1%. In order to use in experiment, samples of various concentrations were prepared by dissolving the cinnamaldehyde derivatives of the present invention in DMSO. 7.5 μl of the prepared samples was added to a culture used as experimental group. Cell of control or experimental group was incubated for 48 hours.
(§2) HCT116 GI50 (μM) and SW620 GI50 (μM) mean to be the concentrations at which growth of HCT116 and SW620 colon cancer cell was inhibited to the 50%, respectively.

HCT116 colon cancer cell [2] = assay: Growth inhibition of HCT116 colon cancer cell (GI50); type: cell-based, human; details: concentration at which growth of HCT116 colon cancer cell was inhibited to the 50%
Experimental: as §1, §2

HCT116 colon cancer cell [3] = assay: Cell cycle analysis (Experimental Example 1), HCT116; type: cell-based, human; details: HCT116, 1 μM, 48 hours, percentage of cells in G2/M
Experimental: as §1
(§3) For cell cycle analysis, incubated cell was removed from medium. Thereafter the incubated cell was separated from the flask by trypsin. Thus the cell was centrifuged at 300 g for 5 min. The cell was washed with phosphate buffer solution (PBS) to remove the residue medium from the cell. 3 ml of ethanol (70%) was added to the cell. The cell was fixed by being positioned at −20° C. for 12 hours. The fixed cell was centrifuged at 300 g for 3 min and washed with the cold PBS for two times to remove residual ethanol. The cell solution prepared by adding 500 μl of PBS to the cell was well mixed to produce the homogeneous state. 100 μg/ml RNase A 50 μl was added to the cell solution, thereafter the resulting cell solution was positioned at 37° C. for 30 min. The chromosomal DNA was stained by further adding 1 mg/ml propidium iodide (soluble in PBS) thereto.
(§4) Distribution of cell cycle of 20,000 stained cells were measured by using Becton-Dickinson FACS caliber (San Jose, Calif., USA).

SW620 colon cancer cell [4] = assay: Cell cycle analysis (Experimental Example 1), SW620; type: cell-based, human; details: SW620, 1 μM, 48 hours, percentage of cells in G2/M
Experimental: as §1, §3, §4

| Structure (SMILES) | GI50 (SW620 colon cancer cell [1]; Homo sapiens, SW-620) [µM] | melting point [°C] | GI50 (HCT116 colon cancer cell [2]; Homo sapiens, HCT-116) [µM] | G2/M at 1 μM(%) HCT116 (HCT116 colon cancer cell [3]) [%] | G2/M at 1 μM(%) SW620 (SW620 colon cancer cell [4]) [%] | GI50 (SW620 colon cancer cell [1]) [µM] | GI50 (HCT116 colon cancer cell [2]) [µM] |
| --- | --- | --- | --- | --- | --- | --- | --- |
| O=CC(=Cc1ccccc1OCc1ccc(Cl)cc1)C(C=O)=Cc1ccccc1OCc1ccc(Cl)cc1 [Compound 17, 2,3-bis-(2-(4-chlorobenzyloxy)-benzylidene)succinaldehyde] | 0.54 | 186 to 187 | 0.84 | 71 | 76 |  |  |
| O=CC(=Cc1ccc(Cl)cc1)C(C=O)=Cc1ccc(Cl)cc1 [Compound 9, 2,3-bis-(4-chlorobenzylidene)succinaldehyde] | 24.2 | 172 to 173 | 3.62 | 63 | 67 |  |  |
| COc1ccc(COc2cccc(C=C(C=O)C(C=O)=Cc3cccc(OCc4ccc(OC)cc4)c3)c2)cc1 [Compound 37, 2,3-bis-(3-(4-methoxybenzyloxy)-benzylidene)succinaldehyde] | 5.1 | 117 to 119 | 3.4 | 35 | 46 |  |  |
| O=CC(=Cc1ccc(OCc2ccc(Cl)cc2)cc1)C(C=O)=Cc1ccc(OCc2ccc(Cl)cc2)cc1 [Compound 38, 2,3-bis-(4-(4-chlorobenzyloxy)-benzylidene)succinaldehyde] | 2.2 | 208 to 209 | 3.8 | 44 | 53 |  |  |
| CC(C)Oc1cccc(C=C(C=O)C(C=O)=Cc2cccc(OC(C)C)c2)c1 [Compound 21, 2,3-bis-(3-isopropyloxy-benzylidene)succinaldehyde] | 0.61 | 116 to 117 | 4.23 | 75 | 74 |  |  |
| CC(C)Oc1ccc(C=C(C=O)C(C=O)=Cc2ccc(OC(C)C)cc2)cc1 [Compound 29, 2,3-bis-(4-isopropyloxy-benzylidene)succinaldehyde] | 1.06 | 200 to 202 | 0.82 | 49 | 47 |  |  |
| O=CC(=Cc1ccccc1OCc1ccc([N+](=O)[O-])cc1)C(C=O)=Cc1ccccc1OCc1ccc([N+](=O)[O-])cc1 [Compound 19, 2,3-bis-(2-(4-nitrobenzyloxy)-benzylidene)succinaldehyde] | 7.09 | 116 to 117 | 5.19 | 32 | 39 |  |  |
| COc1cc(C=C(C=O)C(C=O)=Cc2ccc(OC(=O)c3ccccc3)c(OC)c2)ccc1OC(=O)c1ccccc1 [Compound 27, 2,3-bis-(4-benzoyloxy-3-methoxy-benzylidene)succinaldehyde] | 13.9 | 107 to 110 | 2.95 | 79 | 77 |  |  |
| CCCOc1ccccc1/C=C(C=O)/C(C=O)=C/c1ccccc1OCCC [Compound 13, 2,3-bis(2-propyloxy-benzylidene)succinaldehyde] | 2.11 | 109 to 110 | 5.28 | 65 | 62 |  |  |
| CCCOc1ccc(/C=C(C=O)/C(C=O)=C/c2ccc(OCCC)cc2)cc1 [Compound 28, 2,3-bis-(4-propyloxybenzylidene)succinaldehyde] | 0.55 |  | 0.82 | 72 | 70 |  |  |
| O=CC(=Cc1cccc(Cl)c1)C(C=O)=Cc1cccc(Cl)c1 [Compound 6, 2,3-bis-(3-chlorobenzylidene)succinaldehyde] | 90.6 | 107 to 108 | 3.62 | 60 | 66 |  |  |
| O=CC(=C\c1ccccc1)/C(C=O)=C/c1ccccc1 [Compound 1, 2,3-bis-benzylidenesuccinaldehyde] | 1.52 | 150 to 151 | 8.39 | 42 | 45 |  |  |
| COc1cc(C=C(C=O)C(C=O)=Cc2ccc(OC(C)=O)c(OC)c2)ccc1OC(C)=O [Compound 25, 2,3-bis-(4-acetyloxy-3-methoxy-benzylidene)succinaldehyde] | 66.3 | 149 to 151 | 17.7 | 43 | 48 |  |  |
| COc1ccc(C=C(C=O)C(C=O)=Cc2ccc(OC)cc2)cc1 [Compound 12, 2,3-bis-(4-methoxy-benzylidene)succinaldehyde] | 10.2 | 204 to 207 | 9.62 | 59 | 57 |  |  |
| COc1ccc(COc2ccc(C=C(C=O)C(C=O)=Cc3ccc(OCc4ccc(OC)cc4)cc3)cc2)cc1 [Compound 39, 2,3-bis-(4-(4-methoxybenzyloxy)-benzylidene)succinaldehyde] | 6.8 | 218 to 220 | 3.7 | 38 | 48 |  |  |
| O=CC(=Cc1ccc(OC(=O)c2ccc(Br)cc2)cc1)C(C=O)=Cc1ccc(OC(=O)c2ccc(Br)cc2)cc1 [Compound 34, 2,3-bis-(4-(4-bromobenzoyloxy)benzylidene)succinaldehyde] | 16.7 | 223 to 225 | 30.4 | 60 | 62 |  |  |
| O=CC(=Cc1cccc(OCc2ccccc2)c1)C(C=O)=Cc1cccc(OCc2ccccc2)c1 [Compound 22, 2,3-bis-(3-benzyloxy-benzylidene)succinaldehyde] | 3.58 | 126 to 127 | 7.59 | 68 | 65 |  |  |
| O=CC(=Cc1ccccc1OCc1ccc(Br)cc1)C(C=O)=Cc1ccccc1OCc1ccc(Br)cc1 [Compound 18, 2,3-bis-(2-(4-bromobenzyloxy)-benzylidene)succinaldehyde] | 4.64 | 210 to 211 | 2.63 | 75 | 70 |  |  |
| COc1cc(C=C(C=O)C(C=O)=Cc2ccc(OC(C)C)c(OC)c2)ccc1OC(C)C [Compound 24, 2,3-bis-(4-isopropyloxy-3-methoxy-benzylidene)succinaldehyde] | 0.91 | 119 to 120 | 0.71 | 48 | 55 |  |  |
| CCCOc1ccc(C=C(C=O)C(C=O)=Cc2ccc(OCCC)c(OC)c2)cc1OC [Compound 23, 2,3-bis-(4-propyloxy-3-methoxybenzylidene)succinaldehyde] | 2.28 | 95 to 96 | 0.62 | 50 | 56 |  |  |
| CCCCC(=O)Oc1ccc(C=C(C=O)C(C=O)=Cc2ccc(OC(=O)CCCC)cc2)cc1 [Compound 30, 2,3-bis-(4-valeryoxy-benzylidene)succinaldehyde] |  |  |  | 63 | 65 | 65 | 21 |
| CCCOc1cccc(/C=C(C=O)/C(C=O)=C/c2cccc(OCCC)c2)c1 [Compound 20, 2,3-bis-(3-propyloxy-benzylidene)succinaldehyde] | 6.74 | 93 to 94 | 2.74 | 72 | 76 |  |  |
| O=CC(=Cc1ccc(OC(=O)c2ccccc2F)cc1)C(C=O)=Cc1ccc(OC(=O)c2ccccc2F)cc1 [Compound 33, 2,3-bis-(4-(2-fluorobenzoyloxy)benzylidene)succinaldehyde] | 5.57 | 197 to 199 | 7.43 | 72 | 71 |  |  |
| O=CC(=Cc1ccc(OC(=O)c2ccccc2)cc1)C(C=O)=Cc1ccc(OC(=O)c2ccccc2)cc1 [Compound 32, 2,3-bis-(4-benzoyloxy-benzylidene)succinaldehyde] | 5.97 | 207 to 208 | 11.9 | 56 | 52 |  |  |
| CCCCC(=O)Oc1ccc(C=C(C=O)C(C=O)=Cc2ccc(OC(=O)CCCC)c(OC)c2)cc1OC [Compound 26, 2,3-bis-(4-valeryloxy-3-methoxy-benzylidene)succinaldehyde] | 54 |  | 11.2 | 46 | 47 |  |  |
